Structures are written as SMILES. Where a name gives a salt, the structure may show the parent alone.

One test relates to TNF-α (TNF-alpha) production in human PBMC (peripheral blood mononuclear cells). Put plainly: Inhibition of TNF-alpha production in human PBMC assay (MSD technology). The class given is cell-based. To be noted: Homo sapiens, PBMC, LPS stimulated, measured and/or mean of n measurements, read-out: PBMC pIC50 (MSD assay), inhibition of TNF-α production (converted). The method, then: A 96-well plate (96 MicroWell™ Plates Nunclon™Δ-High Flange Design, Fisher Scientific UK, Bishop Meadow Road, Loughborough LE 11 5 RG, Leicestershire, UK) is prepared by initially adding to column 1 ca. 10 mM of test compound dissolved in DMSO. […] The compound is further diluted with DMSO into columns 2 to 9 by 8 successive 3-fold dilutions using the Biomek® FX Laboratory Automation Workstation (Beckman Coulter, Inc., 4300 N. Harbor Boulevard, P.O. Box 3100, Fullerton, Calif. 92834-3100, USA). Column 10 is used as a DMSO negative control (High Signal, 0% response), whilst column 11, which contains 10 mM of the PDE4 inhibitor roflumilast, is used as a positive control (Low Signal, 100% response). About 1 μl (about 1 ul) of compound is transferred to the compound plate using the Biomek® FX.
PBMC cells (peripheral blood mononuclear cells) are prepared from heparinised human blood (using 1% v/v Heparin Sodium 10001 U/ml Endotoxin Free, Leo Laboratories Ltd., Cashel Road, Dublin 12. Ireland, Cat No: PL0043/0149) from normal volunteers using the Accuspin™ System-Histopaque®-1077 essentially (Sigma-Aldrich Company Ltd., The Old Brickyard New Rd, Gillingham, Dorset SP8 4XT, UK). About 20 ml of blood is overlaid onto 15 ml Histopaque® in Accuspin™ tubes. The tube is then centrifuged at about 800 g for ca. 20 minutes. The cells are collected from the interface, washed by centrifugation (ca. 1300 g, ca. 10 minutes) and resuspended in RPMI1640 medium (Low endotoxin RPMI1640 medium, Cat No: 31870-025, Invitrogen Corporation Invitrogen Ltd, 3 Fountain Drive, Inchinnan Business Park, Paisley PA4 9RF, UK) containing 10% foetal calf serum, 1% L-glutamine (Invitrogen Corporation, Cat No: 25030024) and 1% penicillin/streptomycin (Invitrogen Corporation, Cat No: 15140-122). Viable cells are counted by trypan blue staining and diluted to 1×10^6 viable cells/ml. About 50 μl (about 50 ul) of diluted cells and about 75 μl (about 75 ul) of LPS (ca. 1 ng/ml final; Sigma Cat No: L-6386) are added to the compound plate, which is then incubated at 37° C., 5% CO2, for 20 hours.
The supernatant is removed and the concentrations of TNF-α are determined by electrochemiluminescence assay using the Meso Scale Discovery (MSD) technology (Meso Scale Discovery, 9238 Gaither Road, Gaithersburg, Md. 20877, USA). See the “TNF-α (TNF-alpha) MSD Assay” described below for typical details.
For the following Examples, which are compounds of formula (I) or salts thereof, and generally when using the one of the above assays, or a generally similar or generally analogous assay, the measured and/or mean pIC50 values for inhibition of TNF-α (TNF-alpha) production in PBMCs are generally as follows (subject to a possibly-large variability or error):
Using the Biomek FX, 25 μl (25 ul) of MSD Human Serum Cytokine Assay Diluent (Meso Scale Discovery, 9238 Gaither Road, Gaithersburg, Md. 20877) is added to a 96-well High-Bind MSD plate pre-coated with anti-hTNF alpha capture antibody (MA6000) and then incubated for 24 hours at 4° C. to prevent non-specific binding. About 20 μl (ul) of supernatant from the PBMC plate or about 40 μl (ul) of supernatant from the whole blood (WB) plate are then transferred from columns 1-11 to columns 1-11 of the MSD plate using the Biomek FX. About 20 μl (ul) of TNF-α standard (Cat No. 210-TA; R&D Systems Inc., 614 McKinley Place NE, Minneapolis, Minn. 55413, USA) are added to column 12 of the MSD plate to generate a standard calibration curve (about 0 to 30000 pg/ml final).
For the Whole Blood assay, plates are washed after 2 hours shaking with a Skanwasher 300 version B (Skatron Instruments AS. PO Box 8, N-3401 Lier, Norway). About 40 μl (ul) of diluted sulfo-TAG antibody (ca. […] final) is added, the plates are shaken at room temperature for 1 hours, and the plates washed again as above. About 150 μl (ul) of Read Buffer T (2×) is added to the plates, which are then read on a MSD Sector 6000. […]
As to `CCc1nc2c(cnn2CC)c(NC2CCOCC2)c1CNC(=O)c1ccc(NC(=O)CCCCCCCN(C)CCO)cc1` [Example 1A1, N-{[1,6-Diethyl-4-(tetrahydro-2H-pyran-4-ylamino)-1H-pyrazolo[3,4-b]pyridin-5-yl]methyl}-4-({8-[(2-hydroxyethyl)(methyl)amino]octanoyl}amino)benzamide dihydrochloride], the IC50 is around 0.501 nM.
`CCc1nc2c(cnn2CC)c(NC2CCOCC2)c1CNC(=O)c1ccc(CCCCOCCCCN(C)CCO)cc1` [Example 19, formate salt of N-{[1,6-diethyl-4-(tetrahydro-2H-pyran-4-ylamino)-1H-pyrazolo[3,4-b]pyridin-5-yl]methyl}-4-[4-({4-[(2-hydroxyethyl)(methyl)amino]butyl}oxy)butyl]benzamide]: the IC50 is around 0.251 nM.
As to `CCn1ncc2c(NC3CCOCC3)c(CNC(=O)c3ccc(NC(=O)CCCCCCCN(C)CCO)cc3)cnc21` [Example 26, Formate salt of N-{[1-ethyl-4-(tetrahydro-2H-pyran-4-ylamino)-1H-pyrazolo[3,4-b]pyridin-5-yl]methyl}-4-({8-[(2-hydroxyethyl)(methyl)amino]octanoyl}amino)benzamide], the IC50 was around 15.8 nM.

Staying with this test, now noted: LPS stimulated, measured and/or mean of n measurements.
With `CCc1nc2c(cnn2CC)c(NC2CCOCC2)c1CNC(=O)c1ccc(NC(=O)CCCCCCCN(C)CCO)cc1` [Example 1B, N-{[1,6-diethyl-4-(tetrahydro-2H-pyran-4-ylamino)-1H-pyrazolo[3,4-b]pyridin-5-yl]methyl}-4-({8-[(2-hydroxyethyl)(methyl)amino]octanoyl}amino)benzamide], the “PBMC pIC50 (MSD assay), inhibition of TNF-α production” value (“PBMC pIC50 (MSD assay), inhibition” for short) is reported as “about 9.2 (n = 29)”.
With `CCc1nc2c(cnn2CC)c(NC2CCN(C(N)=O)CC2)c1CNC(=O)c1ccc(NC(=O)CCCCCCCN(C)CCO)cc1.O=C(O)C(F)(F)F` [Example 9, 4-({1,6-diethyl-5-[({[4-({8-[(2-hydroxyethyl)(methyl)amino]octanoyl}amino)phenyl]carbonyl}amino)methyl]-1H-pyrazolo[3,4-b]pyridin-4-yl}amino)-1-piperidinecarboxamide trifluoroacetate (salt)], the “PBMC pIC50 (MSD assay), inhibition” value is recorded as “about 8.4 (n = 4)”.
Take `CCc1nc2c(cnn2CC)c(NC2CCN(C(N)=O)CC2)c1CNC(=O)c1ccc(CCCCOCCCCN2CCOCC2)cc1` [Example 23A, 4-({1,6-diethyl-5-[({[4-(4-{[4-(4-morpholinyl)butyl]oxy}butyl)phenyl]carbonyl}amino)methyl]-1H-pyrazolo[3,4-b]pyridin-4-yl}amino)-1-piperidinecarboxamide]: the “PBMC pIC50 (MSD assay), inhibition” value is listed as “about 9.1 (n = 8)”.

The record behind these values is patent US20090325952A1, “PYRAZOLO[3,4-B]PYRIDINE COMPOUNDS, AND THEIR USE AS PDE4 INHIBITORS” (Glaxo Group Limited, priority 2006, published 2009).
